Measurements taken from PMC7385413 (Frontiers in Neuroscience, 2020).
“And” between values parts separate entries of the source, which are not always exact repeats. Equal values may be shown once. Read-outs that look alike come from different tables or passages of the source.

Legend:
[1] = tested on: C57Bl/6J mice
[2] = tested on: rats; parameters: method as in Riley et al., 2014; conditions: ref Riley et al., 2014; cited from earlier work
[3] = tested on: C57Bl/6J mice; remark: listed apart in the source
[4] = tested on: Sprague–Dawley rats; parameters: method as in Riley et al., 2014; Mathew, 2019; conditions: 16-Bromo SalA 1 mg/kg; 16-Ethynyl SalA 0.3–2 mg/kg; ref Riley et al., 2014; Mathew, 2019; cited from earlier work
[5] = tested on: B6-SJL mice; assay: Intraplantar 2% formaldehyde model, i.p. treatment; format: in vivo; conditions: for Time of significant reduction of pain-related behavioral score: vs vehicle/formaldehyde; for Area under the curve, phase I and phase II pain-related behavior: phase I 0–15 min, phase II 20–60 min
Experimental: The Intraplantar 2% formaldehyde model was carried out as previously described ([Paton et al., 2017]; [Sherwood et al., 2017]). The custom-made chamber (27.5 × 18.5 cm) sat on a glass surface with a 45° angle mirror underneath to capture the behaviors via a video camera. The mice were habituated to the test enclosure for 15 min before testing. The mice were given KOPr agonist or vehicle treatment via i.p. injection 5 min prior to the administration of 20 μL of formaldehyde (2% in PBS) or PBS alone via intraplantar (i.pl.) injection. The animals were recorded for 60 min. The methods of [Dubuisson and Dennis (1977)] were used to assess the pain-like behavior using a weight-bearing score. […] Scores were assessed every 5 s and averaged for every 5 min time period. For the area under the curve analysis, the two phases were separated out as follows: 0–15 min phase one nociceptive pain-related behavior; and 20–60 min phase two inflammatory pain-related behavior.

[6] = tested on: B6-SJL mice; assay: Warm water tail-withdrawal assay, time course (duration of action); format: in vivo; conditions: 50°C, vs vehicle
Experimental: (§1) On the 2 days prior to the test day, mice were restrained in transparent plastic tube restrainers (internal diameter 24 mm) for 5 min daily, to reduce restraint stress. Tail-withdrawal latencies were measured by immersing one-third of the distal portion of the tail in a warm water bath (50 ± 0.5°C) and the time to show the withdrawal response recorded. A maximum tail immersion cut-off of 10 s was used to avoid tissue damage and allow for repeated exposure to the thermal stimulus. On the day of the experiment, the baseline latency for each animal was measured by averaging three predrug tail-withdrawal latencies, with successive measurements taken at least 5 min apart. Following the experimental procedure, the percentage maximum possible effect (%MPE) was calculated for each animal at each time point by using the following formula:
(§2) %MPE=(testlatency-baselinelatency/10-baselinelatency)× 100
To measure the duration of action, the tail-withdrawal latencies were measured over a time-course as previously described ([Simonson et al., 2015]; [Paton et al., 2017]). Following the baseline latency measurements, mice were given an i.p. injection of either KOPr agonist or vehicle and the latency to tail-withdrawal behavior determined at 5, 10, 15, 30, 45, 60, 90, and 120 min for each animal in a repeated measures design.

[7] = tested on: B6-SJL mice
[8] = tested on: hKOPr; assay: Bias factor, G-protein (cAMP) vs β-arrestin2, U50,488 as reference ligand; conditions: for Signaling bias in words: bias calculation relative to U50,488; for Bias factor: relative to U50,488, 1 balanced, >1 G-protein biased, <1 β-arrestin2 biased
[9] = tested on: hKOPr; conditions: read-out: EC50 [35S]GTP-γ-S; cited from earlier work
[10] = tested on: B6-SJL mice; format: in vivo
[11] = tested on: B6-SJL mice; assay: Cumulative dose-response warm water tail-withdrawal assay; format: in vivo; conditions: cumulative s.c. doses; for ED50: Mus musculus, sc, 0.5 h, 50°C, latency 30 min post-injection
Experimental: as §1, §2
The cumulative dose-response effects were evaluated using a within animal design, as previously described ([Bohn et al., 2000]; [Paton et al., 2017]; [Sherwood et al., 2017]). Briefly, mice were given s.c. injections at increasing concentrations to create cumulative doses in a volume of 5 μL/g of weight into the scruff of the neck, the left flank and the right flank in sequence to avoid continuous injections into the same area. At 30 min post-injection, the tail-withdrawal latency was measured and the next cumulative dose administered immediately after. […] Non-linear regression analysis was used to determine potency [median effective dose (ED50)] and efficacy calculated by normalizing data to the prototype KOPr agonist U50,488 [maximum dose achieved (Emax)].

[12] = target: T1, hKOPr (Homo sapiens, UniProt P41145); assay: Inhibition of forskolin-induced cAMP accumulation (HitHunter) in CHO cells expressing hKOPr; format: cell-based; parameters: host or cells: CHO
[13] = target: T1, hKOPr; assay: β-arrestin2 recruitment (PathHunter) in U2OS cells expressing β-arrestin2 and hKOPr; format: cell-based; parameters: host or cells: U2OS
[14] = tested on: B6-SJL mice; format: in vivo; remark: listed apart in the source
[15] = target: T1, hKOPr; parameters: host or cells: CHO; conditions: cited from earlier work
[16] = tested on: B6-SJL mice; conditions: ref White et al. (2015), cited from earlier work
[17] = tested on: B6-SJL mice; parameters: method as in McCurdy et al. (2006); conditions: 2–4 mg/kg, 52°C, male Swiss mice; ref McCurdy et al. (2006); cited from earlier work
[18] = tested on: male NIH Swiss mice; conditions: mouse, in vivo; cited from earlier work
[19] = tested on: B6-SJL mice; conditions: cited from earlier work
[20] = tested on: rats; conditions: ref Ewald et al., 2017; cited from earlier work
[21] = SalA 2 mg/kg i.p., analogs 1–2 mg/kg i.p.

| SMILES | Number of head dips vs vehicle ([1]; mouse, in vivo) | Open arm entries vs vehicle ([1]; mouse, in vivo) | Time in open area vs vehicle ([1]; mouse, in vivo) | Drug-seeking in cocaine prime-induced reinstatement [2] | Marbles buried vs vehicle ([3]; mouse, in vivo) | Effect on spontaneous locomotor activity [4] | Time of significant reduction of pain-related behavioral score ([5]; 1 mg/kg i.p.) | Area under the curve, phase I and phase II pain-related behavior ([5]; 1 mg/kg i.p.) | Area under the curve, phase I and phase II pain-related behavior ([5]; 2 mg/kg i.p.) | Time of significant antinociceptive effect, tail-withdrawal ([6]; 1 mg/kg i.p.) [min] | Signaling bias in words [8] | Bias factor [8] | EC50 [9] [nM] | Duration of action, hot-plate ([10]; mouse, in vivo) [min] | ED50 [11] [mg/kg] | Inhibition of forskolin-induced cAMP accumulation Emax ± SEM [12] | further results |
| --- | --- | --- | --- | --- | --- | --- | --- | --- | --- | --- | --- | --- | --- | --- | --- | --- | --- |
| COC(=O)[C@@H]1C[C@H](OC(C)=O)C(=O)[C@H]2[C@@]1(C)CC[C@H]1C(=O)O[C@H](c3ccoc3Br)C[C@]21C [16-Bromo SalA, 16-Bromo Salvinorin A] | did not have any effect | did not have any effect | did not have any effect | attenuated drug-seeking | did not alter the number of marbles buried | did not have an effect | […] | did not show a significant reduction | did not show a significant reduction | […] | G-protein biased | 7.7 G | […] | […] | 2.06 | 98.8 ± 1.84 | Time of significant reduction of pain-related behavioral score ([5]; 2 mg/kg i.p.): […]; Time of sedative effects (decreased latency to fall) ([7]; B6-SJL, mouse, in vivo): […] |
| C#Cc1occc1[C@@H]1C[C@]2(C)[C@H]3C(=O)[C@@H](OC(C)=O)C[C@@H](C(=O)OC)[C@]3(C)CC[C@H]2C(=O)O1 [16-Ethynyl SalA, 16-Ethynyl Salvinorin A] | reduced | reduced | reduced | attenuated drug-seeking | did not alter the number of marbles buried | did not have an effect | 25 to 35 min | not 1 mg/kg | reduced the pain-related behavioral scores | 10 to 15 | balanced agonist | 1.0 | – | 30 | 1.54 | 101 ± 1.79 | EC50 [13]: 7.35 nM; Effect of nor-BNI pre-treatment on the AUC reduction ([5]; 2 mg/kg i.p., nor-BNI s.c. 24 h prior): nor-BNI significantly reversed the effect; Time of significant antinociceptive effect, tail-withdrawal ([6]; 2 mg/kg i.p.): 5 to 60 min; Time of decreased latency to fall ([7]; B6-SJL, mouse, in vivo): 15 and 30; Antinociceptive effect compared at the 30 min time point, hot-plate ([10]; mouse, in vivo): greater antinociceptive effect than both SalA and 16-Bromo SalA; Emax tail-withdrawal ([11]; normalized to U50,488): 171.0 ± 21.5%; Area under the curve, phase I and II pain-related behavior ([14]; mouse, in vivo): reduced both phases of pain-related behavior; Fold increase in potency at KOPr compared to 16-Bromo SalA [15]: 2 fold; EC50 ([12]; HitHunter, CHO-hKOPr): 0.011 nM |
| COC(=O)[C@@H]1C[C@H](OC(=O)CSC#N)C(=O)[C@H]2[C@@]1(C)CC[C@H]1C(=O)O[C@H](c3ccoc3)C[C@]21C [RB-64] | – | – | – | – | – | – | – | – | – | – | – | – | – | – | – | – | Motor deficits, rotarod ([16]; C57BL/6J mice): did not cause any motor deficits |
| COC(=O)[C@@H]1C[C@H](OC(C)=O)C(=O)[C@H]2[C@@]1(C)CC[C@H]1C(=O)O[C@H](c3ccoc3)C[C@]21C [SalA, Salvinorin A, reference compound] | – | – | – | – | – | – | – | – | – | – | – | – | 2.1 ± 0.6 | – | – | – | Number of head dips vs vehicle [1, 21]: reduced; Open arm entries vs vehicle [1, 21]: reduced; Time in open area vs vehicle ([1]; SalA 2 mg/kg i.p., analogs 1–2 mg/kg i.p., 10 min after injection, 5 min test): reduced; Duration of action, hot-plate [17]: 10 min; Marbles buried vs vehicle ([3]; SalA 2 mg/kg i.p., analogs 1–2 mg/kg i.p., 30 min): increase in the percentage of marble buried; Duration of disrupted climbing behavior [18]: 5 min; Duration of action, tail-withdrawal ([19]; 2–4 mg/kg, male Swiss mice, ref McCurdy et al. (2006)): 20 min; Duration of antinociceptive action, tail-withdrawal ([19]; authors' model, ref Paton et al., 2017): 30 min; Time of significant motor incoordination (decreased latency to fall) ([7]; 2 mg/kg i.p., accelerating rotarod 4 to 40 rpm): 15 to 30 min; Duration of motor incoordination, rotarod ([16]; 3 and 10 mg/kg, female and male C57BL/6J mice): up to 30 min; Duration of action, hot-plate ([10]; 2 mg/kg i.p., 50°C hot-plate): 30 min; Area under the curve, phase I and II pain-related behavior ([14]; 2 mg/kg i.pl.): reduced both phases of pain-related behavior; Anxiogenic effects in the elevated plus maze [20]: has anxiogenic effects |
